From patent publication US20230263897A1, “CONJUGATE OF GALNAC AND SAPONIN, […] COMPOSITION COMPRISING SAID CONJUGATE AND A GALNAC-OLIGO[…]” (SAPREME TECHNOLOGIES B.V., priority 2020, published 2023)
Read-outs that look alike come from different tables or passages of the source. [BNANC] = BNA^NC bridged nucleic acid sugar; d = 2'-deoxy (DNA)

Key:
[1] = tested on: primary human hepatocytes; assay: Cell viability assay (CTG) on primary human hepatocytes; details: for IC50 / effect on cell viability: primary human hepatocytes
Method: The ‘trivalent-GalNAc’ as depicted in FIGS. 1 and 8 is a typical (GalNAc)3Tris conjugate suitable for coupling to an effector molecule or to saponin. […] Primary hepatocytes express receptor at high density—allow for targeting.
Primary hepatocytes which highly express ASGPR1 (ASGPR1*) and hepatocyte cells of cell-line Huh7 (ASGPR1^+/−) were treated with a concentration range of trivalent-GalNAc-SO1861 (TrivalentGalNAc-SPT001), either or not in the presence of 10 μM CD71-saporin (monoclonal antibody OKT-9 targeting CD71 conjugated to the protein toxin saporin; FIG. 30D).
After treatment the cells were incubated for 72 hr at 37° C. before the cell viability was determined by a CTG-assay, performed according to the manufacturer's instruction (CellTiter-Glo® 2.0 Cell Viability Assay, Promega). Briefly, the cell plate was first equilibarated to RT for 30 minutes. Next, to each well containing 120 μL treatment media 120 μL CTG solution was added. The plate briefly mixed (10 sec, 600 rpm) and incubated for approximately 10 minutes in the dark at RT. Subsequently, the luminescence signal was measured on a Spectramax ID5 plate reader (Molecular Devices). For quantification, the background signal of ‘medium only’ wells was subtracted from all other wells before the cell viability percentage of treated/untreated cells was calculated by dividing the background corrected signal of treated wells over the background corrected signal of the untreated wells (×100).
Cryopreserved primary human hepatocytes (Cytes Biotechnologies S.L., Spain) were thawed in hepatocyte thawing media (Cytes Biotechnologies S.L., Spain). Cells were re-suspended in hepatocyte plating media (Cytes Biotechnologies S.L., Spain). Cells were seeded onto collagen-I coated plates at a density of 215.600 cells/well or 66.600 cells/well for the 48 or 96-well plates (Greiner BioOne). Cells were pre-cultured for 4-6 hrs at 37° C. allowing for cell attachment to cell culture plates before the start of treatment. Plating medium was replaced by 315 μl or 108 μl maintenance media (Cytes Biotechnologies S.L., Spain), after which conjugates were added from a 10× concentrated stock solution in PBS. Plates were incubated for 72 hr at 37° C. being harvested for gene expression and cell viability analysis.

ApoB [2] = assay: ApoB gene silencing (qPCR) in Huh7 cells; assay type: cell-based, human; details: for IC50: + 4000 nM trivalent-GalNAc-L-SO1861
Method: (§1) ApoB gene silencing in HepG2 (ASGPR1*) cells or Huh7 (ASPGR1^+/−) was determined. […] Thus, a conjugate comprising a labile bond between any two molecules forming the conjugate or comprised by the conjugate, will be cleaved at a position in the labile linker, therewith dissociating the two linked or bound molecules. An example is the cleavage of a hydrazone bond under acidic conditions as apparent in the endosome and lysosome of mammalian cells such as human cells.
(§2) ApoB gene silencing HepG2 (ASGPR1*) cells and Huh7 (ASPGR1^+/−) cells was determined.
(§3) RNA from cells was isolated and analysed according to standard protocols (Biorad). qPCR primers that were used are indicated in Table A2.

ApoB protein = ApoB protein expression by Huh7 cells; assay type: cell-based, human
ApoB [3] = assay: ApoB gene silencing (qPCR) in HepG2 cells; assay type: cell-based, human
Method: as §1, §2, §3

ApoB RNA = ApoB RNA expression analysis on primary human hepatocytes; assay type: cell-based
Method: RNA from cells was isolated using TRI Reagent® Solution (Thermo Scientific) according to the manufacturer's instruction. Conversion into cDNA was performed using iScript™ cDNA Synthesis Kit (BioRad) using standard protocols. ApoB expression levels and levels of specific hepatocyte housekeeping genes were determined using quantitative real-time PCR assays (qRT-PCR) using iTaq™ Universal SYBR® Green Supermix (BioRad) and the Light Cycler 480 (Roche Diagnostics, Rotkreuz, Switzerland) with specific DNA primers, listed in Table A4. Analysis was done by the ΔCt method to determine ApoB expression relative to 2 hepatocyte-specific housekeeping control mRNAs. Each analysis reaction was performed in triplicate.

HSP27 [4] = assay: HSP27 gene silencing (qPCR) in HepG2 cells; assay type: cell-based, human; details: + 4000 nM SO1861-EMCH
Method: (§4) HSP27 gene silencing in HepG2 and Huh7 cells was determined.
as §3

HSP27 [5] = assay: HSP27 gene silencing (qPCR) in Huh7 cells; assay type: cell-based, human; details: + 4000 nM SO1861-EMCH
Method: as §4, §3

[6] = + 4000 nM trivalent-GalNAc-L-SO1861

CC(=O)OC1C(C)OC(OC2C(C)OC(OC(=O)[C@]34CCC(C)(C)CC3C3=CCC5[C@@]6(C)CC[C@H](OC7OC(C(=O)O)C(O)C(OC8OCC(O)C(O)C8O)C7OC7OC(CO)C(O)C(O)C7O)[C@@](C)(C=O)C6CC[C@@]5(C)[C@]3(C)C[C@H]4O)C(OC3OC(C)C(OC4OCC(O)C(OC5OC(CO)C(O)C(O)C5O)C4O)C(O)C3O)C2O)C(O)C1OC1OCC(O)C(O)C1O (stereo partly shown) [SO1861, reference compound]
IC50 ([1]; read-out: SO1861 IC50 for CD71-saporin mediated cell killing, + 10 μM CD71-saporin (non-effective concentration)): 200 nM

CC(=O)OC1C(C)OC(OC2C(C)OC(OC(=O)[C@]34CCC(C)(C)CC3C3=CCC5[C@@]6(C)CC[C@H](OC7OC(C(=O)O)C(O)C(OC8OCC(O)C(O)C8O)C7OC7OC(CO)C(O)C(O)C7O)[C@@](C)(/C=N/NC(=O)CCCCCN7C(=O)C=CC7=O)C6CC[C@@]5(C)[C@]3(C)C[C@H]4O)C(OC3OC(C)C(OC4OCC(O)C(OC5OC(CO)C(O)C(O)C5O)C4O)C(O)C3O)C2O)C(O)C1OC1OCC(O)C(O)C1O (stereo partly shown) [SO1861-EMCH]
factor of potency increase when cell viability of liver cells is considered ([1]; primary hepatocytes, + 10 μM CD71-saporin): ~10 factor

TrivalentGalNAc-ApoBBNA: conjugate of trivalent GalNAc and the ApoB antisense BNA oligonucleotide ApoBBNA (SEQ ID NO: 2); L or S linker not stated (antisense GCCTCAGTCTGCTTCGCACC; sugars from the 5' end [BNANC]5 d10 [BNANC]5, all phosphorothioate, methylation of C not given here; trivalent GalNAc conjugated via linker, attachment via 5'-thiol C6 linker implied)
lowering of ApoB mRNA expression (ApoB [2]; + 300 nM TrivalentGalNAc-SPT001, FIG. 31B): Neither TrivalentGalNAc-ApoBBNA, nor the combination of TrivalentGalNAc-ApoBBNA and TrivalentGalNAc-SPT001 induce lowering of the ApoB mRNA expression
lowering of ApoB mRNA expression (ApoB [2]; alone, FIG. 31B): Neither TrivalentGalNAc-ApoBBNA, nor the combination of TrivalentGalNAc-ApoBBNA and TrivalentGalNAc-SPT001 induce lowering of the ApoB mRNA expression
lowering of ApoB protein expression (ApoB protein; + 300 nM TrivalentGalNAc-SPT001, FIG. 32B): Neither TrivalentGalNAc-ApoBBNA, nor the combination of TrivalentGalNAc-ApoBBNA and TrivalentGalNAc-SPT001 induce lowering of the ApoB protein expression
lowering of ApoB protein expression (ApoB protein; alone, FIG. 32B): Neither TrivalentGalNAc-ApoBBNA, nor the combination of TrivalentGalNAc-ApoBBNA and TrivalentGalNAc-SPT001 induce lowering of the ApoB protein expression

trivalent-GalNAc-L-ApoBBNA: ApoBBNA (SEQ ID NO: 2) conjugated to trivalent-GalNAc, labile conjugation, FIG. 6 (antisense GCCTCAGTCTGCTTCGCACC; BNA oligo, pattern not given here, trivalent GalNAc via labile linker, position not given here)
effect on cell viability ([1]; + 250 nM (GalNAc)3-SO1861, FIG. 24 B): without affecting cell viability significantly
effect on cell viability ([1]; alone, FIG. 24 B): no effects on cell viability were observed
IC50 ([1]; read-out: IC50 decreased cell viability, + 2000 nM SO1861-EMCH, FIG. 24 B): 600 nM
IC50 (ApoB [2]): 700 nM
IC50 (ApoB [3]; + 4000 nM SO1861-EMCH): 10 nM
IC50 (ApoB [3]; [6]): 50 nM
IC50 (ApoB RNA; + 250 nM (GalNAc)3-SO1861): 15 nM
IC50 (ApoB RNA; + 2000 nM SO1861-EMCH): 8 nM
IC50 (ApoB RNA; alone): > 1000 nM

trivalent-GalNAc-L-HSP27BNA: HSP27BNA (SEQ ID NO: 1) conjugated to trivalent-GalNAc, labile conjugation, FIG. 6 (antisense GGCACAGCCAGTGGCG; sugars from the 5' end [BNANC]3 d10 [BNANC]3, all phosphorothioate, methylation of C not given here; further chemistry not fully specified)
IC50 (HSP27 [4]): 0.1 nM
IC50 (HSP27 [5]): 3 nM

trivalent-GalNAc-S-ApoBBNA: ApoBBNA (SEQ ID NO: 2) conjugated to trivalent-GalNAc, stable conjugation, FIG. 7 (antisense GCCTCAGTCTGCTTCGCACC; sugars from the 5' end [BNANC]5 d10 [BNANC]5, all phosphorothioate, methylation of C not given here; further chemistry not fully specified)
IC50 (ApoB [2]): 700 nM
IC50 (ApoB [3]; + 4000 nM SO1861-EMCH): 10 nM
IC50 (ApoB [3]; [6]): 50 nM

trivalent-GalNAc-S-HSP27BNA: HSP27BNA (SEQ ID NO: 1) conjugated to trivalent-GalNAc, stable conjugation, FIG. 7 (GGCACAGCCAGTGGCG; sugars from the 5' end [BNANC]3 d10 [BNANC]3, all phosphorothioate, methylation of C not given here; further chemistry not fully specified)
IC50 (HSP27 [4]): 0.1 nM
IC50 (HSP27 [5]): 3 nM
